How the values were obtained:
Assay type in all cases: cell-based
A549/ATCC = experiment: NCI in vitro cell line screen (SRB), Non-Small Cell Lung Cancer A549/ATCC
Experimental: (§1) For exemplary purposes, an embodiment of the present invention was tested for activity with respect to certain cancer cell lines. The following Tables show results from in vitro 60-cell line antitumor testing from the US National Cancer Institute Developmental Therapeutics Program (NCI-DTP) on compound 2. The testing was in connection with the NCI's In Vitro Cell Line Screening Project (IVCLSP). Detailed information regarding the experiments and their interpretation is available from the NCI.

EKVX = experiment: NCI in vitro cell line screen (SRB), Non-Small Cell Lung Cancer EKVX
Experimental: as §1

NCI-H460 = experiment: NCI in vitro cell line screen (SRB), Non-Small Cell Lung Cancer NCI-H460
Experimental: as §1

NCI-H522 = experiment: NCI in vitro cell line screen (SRB), Non-Small Cell Lung Cancer NCI-H522
Experimental: as §1

SW-620 = experiment: NCI in vitro cell line screen (SRB), Colon Cancer SW-620
Experimental: as §1

[1] = Homo sapiens, read-out: LC50 (the source's name)

COc1ccc([C@@H](O)[C@@H](C)Oc2ccc([C@H]3O[C@H](c4ccc(O[C@H](C)[C@H](O)c5ccc6c(c5)OCO6)c(OC)c4)[C@H](C)[C@H]3C)cc2OC)cc1OC [Compound 2, manassantin B]
TGI (A549/ATCC): >1.00E−4 Molar | GI50 (A549/ATCC; Homo sapiens): 6.76 µM | LC50 (concentration giving 50% net cell kill) (A549/ATCC; Homo sapiens): > 100 µM | Mean Optical Densities (A549/ATCC; Log10 Concentration −4.0 Molar): 0.691 | Percent Growth (A549/ATCC; Log10 Concentration −4.0 Molar): 30% | Mean Optical Densities (A549/ATCC; Log10 Concentration −5.0 Molar): 0.849 | Percent Growth (A549/ATCC; Log10 Concentration −5.0 Molar): 45% | Mean Optical Densities (A549/ATCC; Log10 Concentration −6.0 Molar): 1.200 | Percent Growth (A549/ATCC; Log10 Concentration −6.0 Molar): 77% | Mean Optical Densities (A549/ATCC; Log10 Concentration −7.0 Molar): 1.242 | Percent Growth (A549/ATCC; Log10 Concentration −7.0 Molar): 80% | Mean Optical Densities (A549/ATCC; Log10 Concentration −8.0 Molar): 1.288 | Percent Growth (A549/ATCC; Log10 Concentration −8.0 Molar): 85% | TGI (EKVX): 8.25E−5 Molar | GI50 (EKVX; Homo sapiens): 2510 nM | CC50 (EKVX; [1]): > 100 µM | Mean Optical Densities (EKVX; Log10 Concentration −4.0 Molar): 0.970 | Percent Growth (EKVX; Log10 Concentration −4.0 Molar): −2% | Mean Optical Densities (EKVX; Log10 Concentration −5.0 Molar): 1.180 | Percent Growth (EKVX; Log10 Concentration −5.0 Molar): 25% | Mean Optical Densities (EKVX; Log10 Concentration −6.0 Molar): 1.479 | Percent Growth (EKVX; Log10 Concentration −6.0 Molar): 66% | Mean Optical Densities (EKVX; Log10 Concentration −7.0 Molar): 1.478 | Percent Growth (EKVX; Log10 Concentration −7.0 Molar): 66% | Mean Optical Densities (EKVX; Log10 Concentration −8.0 Molar): 1.447 | Percent Growth (EKVX; Log10 Concentration −8.0 Molar): 62% | TGI (NCI-H460): >1.00E−4 Molar | GI50 (NCI-H460; Homo sapiens): 2120 nM | LC50 (concentration killing 50% of starting cells) (NCI-H460; Homo sapiens): > 100 µM | Mean Optical Densities (NCI-H460; Log10 Concentration −4.0 Molar): 0.285 | Percent Growth (NCI-H460; Log10 Concentration −4.0 Molar): 11% | Mean Optical Densities (NCI-H460; Log10 Concentration −5.0 Molar): 0.492 | Percent Growth (NCI-H460; Log10 Concentration −5.0 Molar): 28% | Mean Optical Densities (NCI-H460; Log10 Concentration −6.0 Molar): 0.895 | Percent Growth (NCI-H460; Log10 Concentration −6.0 Molar): 61% | Mean Optical Densities (NCI-H460; Log10 Concentration −7.0 Molar): 1.030 | Percent Growth (NCI-H460; Log10 Concentration −7.0 Molar): 72% | Mean Optical Densities (NCI-H460; Log10 Concentration −8.0 Molar): 1.011 | Percent Growth (NCI-H460; Log10 Concentration −8.0 Molar): 70% | TGI (NCI-H522): >1.00E−4 Molar | GI50 (NCI-H522; Homo sapiens): 3.38 µM | CC50 (NCI-H522; [1]): > 100 µM | Mean Optical Densities (NCI-H522; Log10 Concentration −4.0 Molar): 0.760 | Percent Growth (NCI-H522; Log10 Concentration −4.0 Molar): 9% | Mean Optical Densities (NCI-H522; Log10 Concentration −5.0 Molar): 0.919 | Percent Growth (NCI-H522; Log10 Concentration −5.0 Molar): 35% | Mean Optical Densities (NCI-H522; Log10 Concentration −6.0 Molar): 1.119 | Percent Growth (NCI-H522; Log10 Concentration −6.0 Molar): 67% | Mean Optical Densities (NCI-H522; Log10 Concentration −7.0 Molar): 1.099 | Percent Growth (NCI-H522; Log10 Concentration −7.0 Molar): 64% | Mean Optical Densities (NCI-H522; Log10 Concentration −8.0 Molar): 1.087 | Percent Growth (NCI-H522; Log10 Concentration −8.0 Molar): 62% | TGI (SW-620): >1.00E−4 Molar | GI50 (SW-620; Homo sapiens): 6.51 µM | CC50 (SW-620; [1]): > 100 µM | Mean Optical Densities (SW-620; Log10 Concentration −4.0 Molar): 0.396 | Percent Growth (SW-620; Log10 Concentration −4.0 Molar): 25% | Mean Optical Densities (SW-620; Log10 Concentration −5.0 Molar): 0.544 | Percent Growth (SW-620; Log10 Concentration −5.0 Molar): 42% | Mean Optical Densities (SW-620; Log10 Concentration −6.0 Molar): 0.949 | Percent Growth (SW-620; Log10 Concentration −6.0 Molar): 87% | Mean Optical Densities (SW-620; Log10 Concentration −7.0 Molar): 1.012 | Percent Growth (SW-620; Log10 Concentration −7.0 Molar): 94% | Mean Optical Densities (SW-620; Log10 Concentration −8.0 Molar): 0.955 | Percent Growth (SW-620; Log10 Concentration −8.0 Molar): 88%

— patent publication US20090137664A1, “SAURURUS CERNUUS COMPOUNDS THAT INHIBIT CELLULAR RESPONSES TO HYPOXIA” (priority 2003, published 2009)
